Source: ChEMBL document CHEMBL1122105, “Synthesis, decomposition kinetics, and preliminary toxicological studies of pure N-acetyl-p-benzoquinone imine, a proposed toxic metabolite of acetaminophen” (J Med Chem, 1982)

Assays:
[1] = Toxicity in mice 24 hr after ip administration; format: organism-based; settings: mouse, in vivo
[2] = Half life was determined; format: ADME; settings: rat
[3] = Rate constant was determined; format: functional
[4] = Second order rate constant was determined; format: functional

SMILES	LD50 at 24 h [1]	half-life [2]	Rate constant [3]	Second order [4]
CC(=O)Nc1ccc(O)cc1 [ACETAMINOPHEN]	500 mg/kg	–	–	–
CC(=O)N=C1C=CC(=O)C=C1	20 mg/kg	11 min	0.00011 M/s	0.625 M/s
